Laboratory results published in ChEMBL document CHEMBL2346511, “Advances in the discovery of kinesin spindle protein (Eg5) inhibitors as antitumor agents” (Eur J Med Chem, 2013).
pIC50: −log10 of the molar value.

Legend:
[1] = molecular target: T1, Kinesin-like protein KIF11 (Homo sapiens) (UniProt P52732); assay: Ratio of monastrol IC50 to compound IC50 for Eg5 (unknown origin)
T1 sequence (whole entry): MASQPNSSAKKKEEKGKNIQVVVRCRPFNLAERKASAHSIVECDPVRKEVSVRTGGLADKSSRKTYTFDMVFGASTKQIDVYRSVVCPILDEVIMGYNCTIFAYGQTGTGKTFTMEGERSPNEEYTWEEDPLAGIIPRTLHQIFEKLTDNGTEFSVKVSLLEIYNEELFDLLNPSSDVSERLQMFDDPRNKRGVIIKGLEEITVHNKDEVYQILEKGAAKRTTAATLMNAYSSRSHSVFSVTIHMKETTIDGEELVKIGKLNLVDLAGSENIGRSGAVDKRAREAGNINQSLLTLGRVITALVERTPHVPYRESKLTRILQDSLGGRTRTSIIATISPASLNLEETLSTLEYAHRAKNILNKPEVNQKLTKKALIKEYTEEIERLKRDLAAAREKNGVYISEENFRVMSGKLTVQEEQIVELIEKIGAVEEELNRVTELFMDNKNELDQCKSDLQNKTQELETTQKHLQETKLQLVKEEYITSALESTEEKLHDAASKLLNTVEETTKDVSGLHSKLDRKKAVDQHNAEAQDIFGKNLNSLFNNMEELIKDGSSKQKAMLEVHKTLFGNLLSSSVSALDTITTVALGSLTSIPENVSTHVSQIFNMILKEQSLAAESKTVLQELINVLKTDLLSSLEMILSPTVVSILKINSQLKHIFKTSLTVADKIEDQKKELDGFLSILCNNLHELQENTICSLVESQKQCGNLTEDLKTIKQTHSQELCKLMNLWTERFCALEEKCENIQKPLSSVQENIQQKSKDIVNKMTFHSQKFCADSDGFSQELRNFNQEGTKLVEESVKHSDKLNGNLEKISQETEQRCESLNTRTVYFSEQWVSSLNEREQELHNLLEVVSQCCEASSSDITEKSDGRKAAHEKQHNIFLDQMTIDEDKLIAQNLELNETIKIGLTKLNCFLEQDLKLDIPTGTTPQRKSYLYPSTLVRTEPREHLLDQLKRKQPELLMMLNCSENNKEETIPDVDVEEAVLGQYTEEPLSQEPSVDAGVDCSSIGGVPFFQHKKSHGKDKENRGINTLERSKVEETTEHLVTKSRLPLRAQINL

[2] = molecular target: T2, Kinesin-like protein KIF11 (Homo sapiens, UniProt P52732); assay: Inhibition of human recombinant Eg5 ATPase activity expressed in Escherichia coli after 30 mins by malachite green-based spectrophotometric analysis
T2 sequence (P52732 whole entry): T1 sequence (whole entry)

[3] = molecular target: T2, Kinesin-like protein KIF11; assay: Inhibition of Eg5 (unknown origin)
[4] = molecular target: T2, Kinesin-like protein KIF11; assay: Inhibition of Eg5 basal ATPase activity (unknown origin)
[5] = molecular target: T2, Kinesin-like protein KIF11; assay: Inhibition of Eg5 assessed as inhibition of microtubule-induced ATPase activity (unknown origin)
[6] = molecular target: T2, Kinesin-like protein KIF11; assay: Inhibition of human Eg5 assessed as inhibition of microtubule-induced ATPase activity
[7] = molecular target: T2, Kinesin-like protein KIF11; assay: Inhibition of human Eg5 basal ATPase activity
[8] = Antiproliferative activity against human NCI60 cells
Homo sapiens [9] = assay: Toxicity in cancer patient administered as infusion for 1 hr every 21 days; format: organism-based; details: in vivo, iv
Homo sapiens [10] = assay: Toxicity in acute myeloid leukemia patient administered as infusion for 1 hr on 3 consecutive days measured after 2 weeks; format: organism-based; details: in vivo, iv, 336 h
[11] = Half life in cancer patient at 30 mg, iv administered as infusion for 1 hr on days 1, 8 and 15 measured after 28 days; details: human, in vivo
clinical = details: human, in vivo, iv, 16 mg/day
Description: Half life in acute myeloid leukemia patient at 16 mg/day administered as infusion for 1 hr on 3 consecutive days measured after 2 weeks

Homo sapiens [12] = assay: Toxicity in iv dosed cancer patient administered as infusion for 1 hr on days 1, 8 and 15 measured after 28 days; format: organism-based; details: in vivo, 672 h
Homo sapiens [13] = assay: Toxicity in breast cancer patient administered as infusion for 1 hr on day 1 and 15 measured after 28 days; format: organism-based; details: in vivo, iv, 672 h
[14] = Antitumor activity against breast cancer in patients at 12 mg/m2 administered as 1 hr infusion on day 1 and 15 measured after 28 days; format: functional, Homo sapiens, Breast cancer cell
Homo sapiens [15] = assay: Toxicity in prostate cancer patient administered once every 3 weeks; format: organism-based, Prostate gland; details: in vivo, 504 h
[16] = Half life in solid tumor patient at 7 mg/m2 administered as infusion for 1 hr per week for 3 weeks; format: ADME, organism-based; details: human, in vivo, iv
[17] = molecular target: T2, Kinesin-like protein KIF11; assay: Inhibition of human His-tagged Eg5 (1 to 368 amino acid residues) basal ATPase activity
[18] = molecular target: T2, Kinesin-like protein KIF11; assay: Inhibition of Eg5 in human HCT116 cells assessed as inhibition of microtubule-induced ATPase activity after 18 hrs; format: cell-based, HCT-116

For `NCCC(=O)N1CCc2cc3c(cc2C1c1cccc(O)c1)OCO3` (centres undefined), the Ratio IC50 [1] was over 100 and the pIC50 [2] was 7.70.

`CCOC(=O)C1=C(C)NC(=S)NC1c1cccc(O)c1` (centres undefined) [MONASTROL] gave a pIC50 [3] of 4.52.

Molecule `CC1(C)CCC[C@]2(C)O[C@H]3CC[C@@]4(C)[C@@H](CC[C@]5(C)[C@@H]4CC[C@]4(C)c6c(OS(=O)(=O)O)ccc(OS(=O)(=O)O)c6C[C@@H]54)[C@]3(C)CC[C@@H]12` [ADOCIASULFATE-2] has a pIC50 [4] of 5.46 and a pIC50 [5] of 5.28.

Work on `CC(C)(O)[C@@H]1C[C@@H](O)[C@]2(C)[C@H](CC[C@@]3(C)[C@H]2CC[C@H]2Cc4c([nH]c5ccccc45)[C@@]23C)O1` [TERPENDOLE E] yielded a pIC50 [6] of 4.64 and a pIC50 [7] of 4.64.

For `N[C@@H](CSC(c1ccccc1)(c1ccccc1)c1ccccc1)C(=O)O` [S-TRITYL-L-CYSTEINE], the GI50 [8] was 1300 nM.

With `Cc1ccc(C(=O)N(CCCN)[C@@H](c2oc3cc(Cl)ccc3c(=O)c2Cc2ccccc2)C(C)C)cc1` [SB-743921] the MTD (Homo sapiens [9]) was 4 mg/m2.

`Cc1ccc(C(=O)N2CCc3cc4c(cc3C2c2cccc(O)c2)OCO4)cc1` (centres undefined) showed a Ratio IC50 [1] of over 100 and a pIC50 [2] of 7.22.

For `Cc1ccc(C(=O)N(CCCN)C(c2nc3snc(C)c3c(=O)n2Cc2ccccc2)C(C)C)cc1` (single isomer, unassigned; (+)) [AZD-4877], the MTD (Homo sapiens [10]) was 16 mg/day, the half-life at 672 h [11] was 960 min and the half-life at 336 h (clinical) was 1020 min. For the same molecule, the MTD (Homo sapiens [12]) was 30 mg.

`CS(=O)(=O)O.Cc1ccc(C(=O)N(CCCN)[C@@H](c2nc3cc(Cl)ccc3c(=O)n2Cc2ccccc2)C(C)C)cc1` [ISPINESIB MESYLATE] showed an MTD (Homo sapiens [13]) of 12 mg/m2, an Activity [14] of 9% and an MTD (Homo sapiens [15]) of 18 mg/m2. For the same molecule, the half-life [16] was 1980 min.

Work on `Cc1cc2c(C(C)C)c(O)c(O)c(C=O)c2c(O)c1-c1c(C)cc2c(C(C)C)c(O)c(O)c(C=O)c2c1O` [GOSSYPOL] yielded a pIC50 [2] of 4.97.

For `O=C(c1ccc(O)cc1)N1CCc2cc3c(cc2C1c1cccc(O)c1)OCO3` (centres undefined), the Ratio IC50 [1] was over 100 and the pIC50 [2] was 7.40.

Work on `O=C1[C@@H]2Cc3c([nH]c4ccccc34)[C@@H](c3cccc(O)c3)N2C(=O)N1Cc1ccccc1` yielded a pIC50 [3] of 6.19.

`CCC(c1nc2ccccc2n1Cc1ccccc1)N(CCCN(C)C)C(=O)c1ccc(Br)cc1` (centres undefined) showed a pIC50 [3] of 7.40.

`O=C1CCCC2=C1[C@H](c1cc(O)ccc1Br)NC(=S)N2` gave a pIC50 [17] of 6.46.

`CC(=O)NC1=NN(C(C)=O)C(C)(c2ccccc2)S1` (centres undefined) showed a pIC50 [18] of 5.89.

In the case of `O=C1CCCC2=C1[C@H](c1cccc(O)c1)NC(=S)N2`, the Ratio IC50 [1] was 10.

In the case of `CON(C)C(=O)N1N=C(c2cc(F)ccc2F)S[C@@]1(CCCN)c1ccccc1` [FILANESIB], the pIC50 [3] was 8.22.

Work on `CC1=C(C(=O)Nc2ccc(Cl)cc2)C(c2ccccc2)C2=C(CC(C)(C)CC2=O)N1` (centres undefined) yielded a pIC50 [2] of 7.00.
